Source: US20220054469A1, “FARNESOID X RECEPTOR AGONISTS AND USES THEREOF” (Metacrine, Inc., priority 2018, published 2022)
pEC50: −log10 of the molar value.

biological target: T1, hFXR (Homo sapiens, UniProt Q96RI1); assay: In Vitro FXR Assay (TK); format: cell-based; conditions: CV-1 cells transfected with hFXR, hRXR, TK-ECRE-luc and pCMX-YFP; incubated with compound for 18 hrs; luminescence
T1 construct: expressed in transfected cells; host or cells: CV-1 cells
T1 sequence (Q96RI1 1-486): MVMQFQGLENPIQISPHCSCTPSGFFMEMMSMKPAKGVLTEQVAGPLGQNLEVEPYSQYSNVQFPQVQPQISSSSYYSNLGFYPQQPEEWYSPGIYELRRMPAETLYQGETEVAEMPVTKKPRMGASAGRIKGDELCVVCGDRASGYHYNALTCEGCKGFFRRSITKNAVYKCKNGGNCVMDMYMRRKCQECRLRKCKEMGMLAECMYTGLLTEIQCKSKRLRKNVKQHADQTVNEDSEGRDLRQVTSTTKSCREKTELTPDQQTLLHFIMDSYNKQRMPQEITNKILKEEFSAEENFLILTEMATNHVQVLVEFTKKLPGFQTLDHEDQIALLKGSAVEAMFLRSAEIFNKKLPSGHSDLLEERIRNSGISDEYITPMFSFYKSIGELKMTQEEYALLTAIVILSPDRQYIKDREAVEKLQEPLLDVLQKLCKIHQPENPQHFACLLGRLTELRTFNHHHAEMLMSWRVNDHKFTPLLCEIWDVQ
T1 sequence (P19793 1-462 partner): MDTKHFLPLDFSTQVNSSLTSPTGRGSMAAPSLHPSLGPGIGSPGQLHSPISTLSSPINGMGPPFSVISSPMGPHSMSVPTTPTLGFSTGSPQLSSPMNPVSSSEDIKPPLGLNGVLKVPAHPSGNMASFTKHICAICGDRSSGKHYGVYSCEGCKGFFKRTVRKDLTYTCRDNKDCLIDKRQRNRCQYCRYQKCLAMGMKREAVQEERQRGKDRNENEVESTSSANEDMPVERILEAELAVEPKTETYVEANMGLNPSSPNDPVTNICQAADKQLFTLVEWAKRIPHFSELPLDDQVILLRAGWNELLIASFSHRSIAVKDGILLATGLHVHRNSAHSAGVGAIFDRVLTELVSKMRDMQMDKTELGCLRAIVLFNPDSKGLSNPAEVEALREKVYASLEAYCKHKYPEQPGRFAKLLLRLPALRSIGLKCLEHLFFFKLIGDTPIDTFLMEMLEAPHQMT
Protocol: Example B-1: In Vitro FXR Assay (TK)
CV-1 cells were seeded at a density of 2,000,000 cells in a T175 flask with DMEM+10% charcoal double-stripped FBS and incubated at 37° C. in 5% CO2 for 18 h (O/N).
After 18 h of incubation, the medium in the T175 flask was changed with fresh DMEM+10% charcoal super-stripped serum. In a polypropylene tube, 2500 μL OptiMEM (Life Technologies, Cat #31985-062) was combined with expression plasmids for hFXR, hRXR, TK-ECRE-luc and pCMX-YFP. The tube was then briefly vortexed and incubated at room temperature for 5 minutes. Transfection reagent (X-tremeGENE HP from Roche, Cat #06 366 236 001) was added to the OptiMEM/plasmid mixture vortexed and incubated at room temperature for 20 minutes. Following incubation, the transfection reagent/DNA mixture complex was added to cells in the T175 flask and the cells were incubated at 37° C. in 5% CO2 for 18 h (O/N).
Compounds were serially diluted in DMSO and added to transfected CV-1 cells. The cells were then incubated for 18 hrs. The next day cells were lysed and examined for luminescence.

Q: With COc1ccc(C23CCC(CN(c4cccc(-c5cnn(C(C)(C)C)c5)c4)C(=O)[C@H]4CC[C@H](C(=O)O)CC4)(CC2)CC3)cc1C [Compound 2.03, trans-4-((3-(1-(tert-Butyl)-1H-pyrazol-4-yl)phenyl)((4-(4-methoxy-3-methylphenyl)bicyclo[2.2.2]octan-1-yl)methyl)carbamoyl)cyclohexanecarboxylic acid] as the compound, how does the pEC50 read?
A: The pEC50 was no less than 7.30.

Q: How did the pEC50 turn out when COc1ccc(C23CCC(CN(c4cncc(-c5cnn(C(C)C)c5)n4)C(=O)[C@H]4CC[C@H](CC(=O)O)CC4)(CC2)CC3)cc1C (relative stereo) [Compound 4.10, trans-2-(4-((6-(1-Isopropyl-1H-pyrazol-4-yl)pyrazin-2-yl)((4-(4-methoxy-3-methylphenyl)bicyclo[2.2.2]octan-1-yl)methyl)carbamoyl)cyclohexyl)acetic acid] was run?
A: The pEC50 was 6.00 to 7.30.

Q: COc1ccc(C23CCC(CN(c4cc(-c5cnn(C(C)(C)C)c5)ncn4)C(=O)[C@H]4CC[C@H](CC(=O)O)CC4)(CC2)CC3)cc1C [Compound 4.07, trans-2-(4-((6-(1-(tert-Butyl)-1H-pyrazol-4-yl)pyrimidin-4-yl)((4-(4-methoxy-3-methylphenyl)bicyclo[2.2.2]octan-1-yl)methyl)carbamoyl)cyclohexyl)acetic acid] was tested. Which pEC50 did it give?
A: The pEC50 was 6.00 to 7.30.

Q: COc1ccc(C23CCC(CN(c4cc(-c5coc(C(C)(C)C)n5)ccn4)C(=O)[C@H]4CC[C@H](CC(=O)O)CC4)(CC2)CC3)cc1C [Compound 4.18, trans-2-(4-((4-(2-(tert-Butyl)oxazol-4-yl)pyridin-2-yl)((4-(4-methoxy-3-methylphenyl)bicyclo[2.2.2]octan-1-yl)methyl)carbamoyl)cyclohexyl)acetic acid] was tested. Which pEC50 did it give?
A: The pEC50 was no less than 7.30.

Q: With COc1ccc(C23CCC(CN(c4cc(-c5coc(C(C)C)n5)ccn4)C(=O)[C@H]4CC[C@H](CC(=O)O)CC4)(CC2)CC3)cc1C [Compound 4, trans-2-(4-((4-(2-Isopropyloxazol-4-yl)pyridin-2-yl)((4-(4-methoxy-3-methylphenyl)bicyclo[2.2.2]octan-1-yl)methyl)carbamoyl)cyclohexyl)acetic acid] as the compound, how does the pEC50 read?
A: Its pEC50 is no less than 7.30.

Q: COc1ccc(C23CCC(CN(c4cc(-c5cnn(C(C)(C)C)c5)ccn4)C(=O)[C@H]4CC[C@H](C(=O)O)CC4)(CC2)CC3)cc1C [Compound 4.03, trans-4-((4-(1-(tert-Butyl)-1H-pyrazol-4-yl)pyridin-2-yl)((4-(4-methoxy-3-methylphenyl)bicyclo[2.2.2]octan-1-yl)methyl)carbamoyl)cyclohexanecarboxylic acid] was tested. Which pEC50 did it give?
A: The pEC50 was no less than 7.30.

Q: With COc1ccc(C23CCC(CN(c4cc(-n5cnc(C6CC6)n5)ccn4)C(=O)[C@H]4CC[C@H](CC(=O)O)CC4)(CC2)CC3)cc1C [Compound 4.27, trans-2-(4-((4-(3-Cyclopropyl-1H-1,2,4-triazol-1-yl)pyridin-2-yl)((4-(4-methoxy-3-methylphenyl)bicyclo[2.2.2]octan-1-yl)methyl)carbamoyl)cyclohexyl)acetic acid] as the compound, how does the pEC50 read?
A: The pEC50 was no less than 7.30.

Q: COc1c(C)cc(C23CCC(CN(c4cc(-c5cnn(C(C)C)c5)ncn4)C(=O)[C@H]4CC[C@H](CC(=O)O)CC4)(CC2)CC3)cc1C [Compound 4.08, trans-2-(4-((6-(1-Isopropyl-1H-pyrazol-4-yl)pyrimidin-4-yl)((4-(4-methoxy-3,5-dimethylphenyl)bicyclo[2.2.2]octan-1-yl)methyl)carbamoyl)cyclohexyl)acetic acid] was tested. Which pEC50 did it give?
A: The pEC50 was 6.00 to 7.30.

Q: How did the pEC50 turn out when COc1ccc(C23CCC(CN(c4cncc(-c5cnn(C(C)C)c5)c4)C(=O)[C@H]4CC[C@H](CC(=O)O)CC4)(CC2)CC3)cc1C (relative stereo) [Compound 2.11, trans-2-(4-((5-(1-Isopropyl-1H-pyrazol-4-yl)pyridin-3-yl)((4-(4-methoxy-3-methylphenyl)bicyclo[2.2.2]octan-1-yl)methyl)carbamoyl)cyclohexyl)acetic acid] was run?
A: The pEC50 was 6.00 to 7.30.

Q: With COc1ccc(C23CCC(CN(c4cccc(-c5cnn(C(C)C)c5)n4)C(=O)[C@H]4CC[C@H](CC(=O)O)CC4)(CC2)CC3)cc1C (relative stereo) [Compound 4.06, trans-2-(4-((6-(1-Isopropyl-1H-pyrazol-4-yl)pyridin-2-yl)((4-(4-methoxy-3-methylphenyl)bicyclo[2.2.2]octan-1-yl)methyl)carbamoyl)cyclohexyl)acetic acid] as the compound, how does the pEC50 read?
A: Its pEC50 is no less than 7.30.

Q: COc1ccc(C23CCC(CN(c4cc(-c5cnn(C(C)C)c5)ccn4)C(=O)[C@H]4CC[C@H](C(=O)O)CC4)(CC2)CC3)cc1C [Compound 4.02, trans-4-((4-(1-Isopropyl-1H-pyrazol-4-yl)pyridin-2-yl)((4-(4-methoxy-3-methylphenyl)bicyclo[2.2.2]octan-1-yl)methyl)carbamoyl)cyclohexanecarboxylic acid] was tested. Which pEC50 did it give?
A: Its pEC50 is no less than 7.30.

Q: With COc1ccc([C@H]2CC[C@H](CN(c3cccc(-c4cnn(C(C)(C)C)c4)c3)C(=O)[C@H]3CC[C@H](CC(=O)O)CC3)CC2)cc1C [Compound 2.04, 2-(trans-4-((3-(1-(tert-Butyl)-1H-pyrazol-4-yl)phenyl)((trans-4-(4-methoxy-3-methylphenyl)cyclohexyl)methyl)carbamoyl)cyclohexyl)acetic acid] as the compound, how does the pEC50 read?
A: The pEC50 was no less than 7.30.

Q: How did the pEC50 turn out when COc1ncc(C23CCC(CN(c4cc(-c5cnn(C(C)C)c5)ccn4)C(=O)[C@H]4CC[C@H](CC(=O)O)CC4)(CC2)CC3)cc1C [Compound 4.12, trans-2-(4-((4-(1-Isopropyl-1H-pyrazol-4-yl)pyridin-2-yl)((4-(6-methoxy-5-methylpyridin-3-yl)bicyclo[2.2.2]octan-1-yl)methyl)carbamoyl)cyclohexyl)acetic acid] was run?
A: Its pEC50 is no less than 7.30.

Q: With COc1ccc(C23CCC(CN(c4cc(-c5nnc(C(C)C)o5)ccn4)C(=O)[C@H]4CC[C@H](CC(=O)O)CC4)(CC2)CC3)cc1C [Compound 4.19, trans-2-(4-((4-(5-lsopropyl-1,3,4-oxadiazol-2-yl)pyridin-2-yl)((4-(4-methoxy-3-methylphenyl)bicyclo[2.2.2]octan-1-yl)methyl)carbamoyl)cyclohexyl)acetic acid] as the compound, how does the pEC50 read?
A: Its pEC50 is 6.00 to 7.30.

Q: With COc1ccc(C23CCC(CN(c4cc(-c5cnn(C(C)C)c5)ccn4)C(=O)[C@H]4CC[C@H](CCC(=O)O)CC4)(CC2)CC3)cc1C [Compound 1, trans-3-(4-((4-(1-Isopropyl-1H-pyrazol-4-yl)pyridin-2-yl)((4-(4-methoxy-3-methylphenyl)bicyclo[2.2.2]octan-1-yl)methyl)carbamoyl)cyclohexyl)propanoic acid] as the compound, how does the pEC50 read?
A: The pEC50 was no less than 7.30.

Q: With COc1ccc(C23CCC(CN(c4cccc(-c5cnn(C(C)C)c5)c4F)C(=O)[C@H]4CC[C@H](CC(=O)O)CC4)(CC2)CC3)cc1C [Compound 2.08, trans-2-(4-((2-Fluoro-3-(1-isopropyl-1H-pyrazol-4-yl)phenyl)((4-(4-methoxy-3-methylphenyl)bicyclo[2.2.2]octan-1-yl)methyl)carbamoyl)cyclohexyl)acetic acid] as the compound, how does the pEC50 read?
A: The pEC50 was no less than 7.30.

Q: With COc1ccc(C23CCC(CN(C(=O)[C@@H]4CCC[C@H](C(=O)O)C4)c4cc(-c5cnn(C(C)C)c5)ccn4)(CC2)CC3)cc1C (relative stereo) [Compound 3.05, cis-3-((4-(1-Isopropyl-1H-pyrazol-4-yl)pyridin-2-yl)((4-(4-methoxy-3-methylphenyl)bicyclo[2.2.2]octan-1-yl)methyl)carbamoyl)cyclohexanecarboxylic acid] as the compound, how does the pEC50 read?
A: Its pEC50 is 5.00 to 6.00.

Q: How did the pEC50 turn out when COc1ncc(C23CCC(CN(c4cccc(-c5cnn(C(C)C)c5)c4)C(=O)[C@H]4CC[C@H](CC(=O)O)CC4)(CC2)CC3)cc1C [Compound 4.11, trans-2-(4-((3-(1-Isopropyl-1H-pyrazol-4-yl)phenyl)((4-(6-methoxy-5-methylpyridin-3-yl)bicyclo[2.2.2]octan-1-yl)methyl)carbamoyl)cyclohexyl)acetic acid] was run?
A: Its pEC50 is no less than 7.30.

Q: CC(C)n1cc(-c2cccc(N(CC34CCC(c5ccc(N(C)C)nc5)(CC3)CC4)C(=O)[C@H]3CC[C@H](CC(=O)O)CC3)c2)cn1 [Compound 4.14, trans-2-(4-(((4-(6-(Dimethylamino)pyridin-3-yl)bicyclo[2.2.2]octan-1-yl)methyl)(3-(1-isopropyl-1H-pyrazol-4-yl)phenyl)carbamoyl)cyclohexyl)acetic acid] was tested. Which pEC50 did it give?
A: The pEC50 was no less than 7.30.
